Experimental data: article PMC5142369 (Hypertension (Dallas, Tex. : 1979), 2016)

Target: T1, aldosterone synthase (CYP11B2) (Homo sapiens, UniProt P19099)
T1 sequence (P19099 25-503): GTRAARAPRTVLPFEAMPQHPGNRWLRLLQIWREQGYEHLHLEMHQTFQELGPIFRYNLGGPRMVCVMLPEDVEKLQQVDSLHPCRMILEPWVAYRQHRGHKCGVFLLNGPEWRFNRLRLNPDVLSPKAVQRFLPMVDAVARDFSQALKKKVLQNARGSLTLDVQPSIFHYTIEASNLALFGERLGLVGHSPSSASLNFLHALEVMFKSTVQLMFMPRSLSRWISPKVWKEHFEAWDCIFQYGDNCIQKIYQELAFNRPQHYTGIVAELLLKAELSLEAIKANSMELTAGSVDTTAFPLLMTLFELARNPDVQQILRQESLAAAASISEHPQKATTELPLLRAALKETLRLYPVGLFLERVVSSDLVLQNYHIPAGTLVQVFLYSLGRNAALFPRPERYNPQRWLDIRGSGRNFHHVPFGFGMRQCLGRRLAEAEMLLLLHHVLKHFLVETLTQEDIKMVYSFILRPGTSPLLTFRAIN
Assay: aldosterone production by cells expressing the recombinant enzyme
Type: cell-based

Ki: 13 nM
Structure (SMILES): CCC(=O)N[C@@H]1CCCc2c(-c3ccc4c(c3)CCC(=O)N4C)cncc21 [RO6836191]
